The supplement of paper PMC10307832

Key:
Assay in all cases: relative viability (nuclei count vs DMSO), 5 days (fraction); higher = more cells survive
LU99A = system: LU99A
Procedure, shortened: (§1)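 Five library-drug doses in √10 steps were combined with a fixed anchor-drug dose, or a single drug was given alone, by pin tool to lung cancer cell lines in 1536-well plates the day after seeding. Nuclei were stained and counted after 5 days. Relative viability is the nuclei count in treated wells over that in vehicle wells, taken as the median of duplicate plates.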

NCI-H2347 = system: NCI-H2347
Procedure, shortened: as §1

LC-2-ad = system: LC-2-ad
Procedure, shortened: as §1

NCI-H2085 = system: NCI-H2085
Procedure, shortened: as §1

SW 1573 = system: SW 1573
Procedure, shortened: as §1

HCC-78 = system: HCC-78
Procedure, shortened: as §1

PC-14 = system: PC-14
Procedure, shortened: as §1

UMC-11 = system: UMC-11
Procedure, shortened: as §1

HARA = system: HARA
Procedure, shortened: as §1

NCI-H1355 = system: NCI-H1355
Procedure, shortened: as §1

NCI-H2023 = system: NCI-H2023
Procedure, shortened: as §1

NCI-H2126 = system: NCI-H2126
Procedure, shortened: as §1

NCI-H1651 = system: NCI-H1651
Procedure, shortened: as §1

NCI-H358 = system: NCI-H358
Procedure, shortened: as §1

ABC-1 = system: ABC-1
Procedure, shortened: as §1

NCI-H1993 = system: NCI-H1993
Procedure, shortened: as §1

COR-L23 = system: COR-L23
Procedure, shortened: as §1

NCI-H650 = system: NCI-H650
Procedure, shortened: as §1

NCI-H838 = system: NCI-H838
Procedure, shortened: as §1

EPLC-272H = system: EPLC-272H
Procedure, shortened: as §1

NCI-H1915 = system: NCI-H1915
Procedure, shortened: as §1

HCC-15 = system: HCC-15
Procedure, shortened: as §1

`O=C(O)c1ccc(-c2c[nH]c3ncc(-c4ccccc4)cc23)cc1C1CCCC1` + Cc1nc(NC(=O)N2CCC[C@H]2C(N)=O)sc1-c1ccnc(C(C)(C)C(F)(F)F)c1 [Alpelisib] (partner 2 µM) showed a relative viability (LU99A; first compound 0.04 µM) of 0.597, a relative viability (LU99A; first compound 0.1265 µM) of 0.615 and a relative viability (LU99A; first compound 0.4 µM) of 0.485. It also gave a relative viability (LU99A; first compound 1.265 µM) of 0.425, a relative viability (NCI-H2347; first compound 0.04 µM) of 1.12 and a relative viability (NCI-H2347; first compound 0.1265 µM) of 1.13. For the same compound, the relative viability (NCI-H2347; first compound 0.4 µM) was 1.11, the relative viability (NCI-H2347; first compound 1.265 µM) was 0.81 and the relative viability (LC-2-ad; first compound 0.04 µM) was 0.86. The relative viability (LC-2-ad; first compound 0.1265 µM) was 0.906, the relative viability (LC-2-ad; first compound 0.4 µM) was 0.827 and the relative viability (LC-2-ad; first compound 1.265 µM) was 0.573. It also gave a relative viability (NCI-H2085; first compound 0.04 µM) of 1.03, a relative viability (NCI-H2085; first compound 0.1265 µM) of 0.98 and a relative viability (NCI-H2085; first compound 0.4 µM) of 0.944. For the same compound, the relative viability (NCI-H2085; first compound 1.265 µM) was 0.741, the relative viability (SW 1573; first compound 0.04 µM) was 0.687 and the relative viability (SW 1573; first compound 0.1265 µM) was 0.89. The relative viability (SW 1573; first compound 0.4 µM) was 0.797, the relative viability (SW 1573; first compound 1.265 µM) was 0.891 and the relative viability (HCC-78; first compound 0.04 µM) was 0.397. The relative viability (HCC-78; first compound 0.1265 µM) was 0.361, the relative viability (HCC-78; first compound 0.4 µM) was 0.456 and the relative viability (HCC-78; first compound 1.265 µM) was 0.321. For the same compound, the relative viability (PC-14; first compound 0.04 µM) was 0.933, the relative viability (PC-14; first compound 0.1265 µM) was 0.897 and the relative viability (PC-14; first compound 0.4 µM) was 0.971. It also gave a relative viability (PC-14; first compound 1.265 µM) of 0.886, a relative viability (UMC-11; first compound 0.04 µM) of 0.938 and a relative viability (UMC-11; first compound 0.1265 µM) of 1.06. The relative viability (UMC-11; first compound 0.4 µM) was 1.02, the relative viability (UMC-11; first compound 1.265 µM) was 0.929 and the relative viability (HARA; first compound 0.04 µM) was 0.775. It also gave a relative viability (HARA; first compound 0.1265 µM) of 0.988, a relative viability (HARA; first compound 0.4 µM) of 0.812 and a relative viability (HARA; first compound 1.265 µM) of 0.707. It also gave a relative viability (NCI-H1355; first compound 0.04 µM) of 0.795, a relative viability (NCI-H1355; first compound 0.1265 µM) of 0.804 and a relative viability (NCI-H1355; first compound 0.4 µM) of 0.819. It also gave a relative viability (NCI-H1355; first compound 1.265 µM) of 0.621, a relative viability (NCI-H2023; first compound 0.04 µM) of 0.629 and a relative viability (NCI-H2023; first compound 0.1265 µM) of 0.65. It also gave a relative viability (NCI-H2023; first compound 0.4 µM) of 0.583, a relative viability (NCI-H2023; first compound 1.265 µM) of 0.529 and a relative viability (NCI-H2126; first compound 0.04 µM) of 0.787. For the same compound, the relative viability (NCI-H2126; first compound 0.1265 µM) was 0.76, the relative viability (NCI-H2126; first compound 0.4 µM) was 0.696 and the relative viability (NCI-H2126; first compound 1.265 µM) was 0.629. For the same compound, the relative viability (NCI-H1651; first compound 0.04 µM) was 0.977, the relative viability (NCI-H1651; first compound 0.1265 µM) was 1.02 and the relative viability (NCI-H1651; first compound 0.4 µM) was 0.613. The relative viability (NCI-H1651; first compound 1.265 µM) was 0.713, the relative viability (NCI-H358; first compound 0.04 µM) was 0.767 and the relative viability (NCI-H358; first compound 0.1265 µM) was 0.904. It also gave a relative viability (NCI-H358; first compound 0.4 µM) of 0.708, a relative viability (NCI-H358; first compound 1.265 µM) of 0.381 and a relative viability (ABC-1; first compound 0.04 µM) of 0.831. For the same compound, the relative viability (ABC-1; first compound 0.1265 µM) was 1.09, the relative viability (ABC-1; first compound 0.4 µM) was 1.24 and the relative viability (ABC-1; first compound 1.265 µM) was 1.2. It also gave a relative viability (NCI-H1993; first compound 0.04 µM) of 0.656, a relative viability (NCI-H1993; first compound 0.4 µM) of 0.68 and a relative viability (NCI-H1993; first compound 1.265 µM) of 0.594. The relative viability (COR-L23; first compound 0.04 µM) was 0.79, the relative viability (COR-L23; first compound 0.1265 µM) was 0.745 and the relative viability (COR-L23; first compound 0.4 µM) was 0.742. It also gave a relative viability (COR-L23; first compound 1.265 µM) of 0.61, a relative viability (NCI-H650; first compound 0.04 µM) of 1.19 and a relative viability (NCI-H650; first compound 0.1265 µM) of 1.13. The relative viability (NCI-H650; first compound 0.4 µM) was 0.928, the relative viability (NCI-H650; first compound 1.265 µM) was 0.737 and the relative viability (NCI-H838; first compound 0.04 µM) was 1.08. The relative viability (NCI-H838; first compound 0.1265 µM) was 1.13, the relative viability (NCI-H838; first compound 0.4 µM) was 1.11 and the relative viability (NCI-H838; first compound 1.265 µM) was 1.02. It also gave a relative viability (EPLC-272H; first compound 0.04 µM) of 0.79, a relative viability (EPLC-272H; first compound 0.1265 µM) of 0.974 and a relative viability (EPLC-272H; first compound 0.4 µM) of 0.949. It also gave a relative viability (EPLC-272H; first compound 1.265 µM) of 0.633, a relative viability (NCI-H1915; first compound 0.04 µM) of 1.13 and a relative viability (NCI-H1915; first compound 0.1265 µM) of 1.07. For the same compound, the relative viability (NCI-H1915; first compound 0.4 µM) was 1.04, the relative viability (NCI-H1915; first compound 1.265 µM) was 0.737 and the relative viability (HCC-15; first compound 0.04 µM) was 0.956. The relative viability (HCC-15; first compound 0.1265 µM) was 0.837, the relative viability (HCC-15; first compound 0.4 µM) was 0.849 and the relative viability (HCC-15; first compound 1.265 µM) was 0.49.
